Entries after “also recorded” stand apart in the source; their conditions may differ.
Tested on: ischemia/reperfusion induced kidney injury
Assay: rat model of ischemia/reperfusion induced kidney injury
Format: in vivo
Settings: Sprague Dawley rats after ischemic renal injury (45 min bilateral renal pedicle occlusion), veliparib 25 mg/kg BID PO
From the text: Acute kidney injury (AKI) is a clinical condition characterized by a rapid decline in kidney function and is often associated with high morbidity and mortality. The precise etiology of ischemia/reperfusion (I/R)-induced AKI is yet not fully understood and is thought to involve multiple factors. The prevention of acute kidney injury and its progression represents a great challenge particularly in renal transplanted patients. Therefore, animal models of renal ischemia/reperfusion (I/R) are important to understand pathophysiology and potential treatment strategies for AKI. The present study evaluated the efficacy of a test compound, namely veliparib (shown below),
[drawing 8] in a rat model of ischemia/reperfusion induced kidney injury.
Species: Rattus norvegicus
3. Experimental Plan • i. All animals were numbered and kept in acclimatization for a period of 5-7 days, with 2 days acclimatization on metabolic cages before, initiation of the experiment. • ii. Animals were randomized into different treatment groups based on their body weight and assigned a permanent number. • iii. Body weight measurements were made once at randomization, also daily just prior to compound dosing and prior to termination. All body weights were recorded. • iv. Treatment with test compound(s) varied based on dose group (see table) that follows different dosing paradigms. The time of each dose administration was recorded. • 1. The dosing schedule for groups 1 and 2 was as follows: a 5 mL/kg BID dose with vehicle starting Day −1 through Day 2 with the final dose on Day 3 occurring 2 hours prior to takedown. • 2. The dosing schedule for group 3 with veliparib was 25 mg/kg BID starting on Day −1. […] After 45 min, the clips were removed, reperfusion was monitored (change in kidney color) for 1-2 min and the surgical sites were sutured. […] Postsurgical care and recovery: Animals were monitored until recovery from anesthesia and returned to their metabolic cage. […] For the 6 hour collection, urine volume was measured and recorded (to the nearest 1.0 mL) and samples were clarified by centrifugation (3000 rpm for 10 minutes). […]

`C[C@]1(c2nc3c(C(N)=O)cccc3[nH]2)CCCN1` [veliparib] was tested, and the “induced increases in blood urea nitrogen (BUN)” value (FIG. 2A/2B) was “attenuates”, the “induced increases in plasma creatinine levels” value (FIG. 2A/2B) was “attenuates” and the “fractional excretion of sodium (a measurement of tubular injury)” value (FIG. 3) was “improves; also recorded: attenuates”.

Reference: US10874641B2, “Methods of treating acute kidney injury” (Mitobridge, Inc., priority 2016, dated 2020)
